Experimental data: patent US10787483B2, “Antimicrobial peptidomimetics” (Agency for Science, Technology and Research, priority 2014, dated 2020)
Converted amounts (≈) assume the structure as drawn. Read-outs that look alike come from different tables or passages of the source.

Assays:
[1] = tested on: MRSA ATCC-700699; test: MIC, panel of MRSA strains: ATCC-700699; type: cell-based; conditions: Staphylococcus aureus; MRSA strain ATCC-700699
Description: (§1) Using a sterile loop, 3 to 5 isolated colonies of bacteria of the same morphological appearance are selected from the overnight agar plate. The colonies are transferred into a conical flask containing 5 mL of liquid medium (i.e. Mueller-Hinton broth). The broth is incubated at 37° C. in a shaker at 220 rpm until it reaches a turbidity that is equal to the turbidity of a McFarland Standard 0.5 (correspond to 1×10^8 cfu/mL). This culture growth step will require 1-2 hours depending on the bacteria tested.
(§2) During this pause period, an antibacterial dilution is prepared. Therefore an antibacterial stock solution is diluted in Mueller-Hinton broth. The concentration of DMSO is kept at 5%. 100 μL of the antibacterial solution are dispensed into the first well of a row. 50 μL of medium containing 0.5% of DMSO are dispensed to the rest of the wells. […]
(§3) The bacterial suspension prepared above is mixed thoroughly, and diluted by a factor of 1:100 in the sterile medium. […] The colonies on the agar plate are counted the next day to verify that the right number of cfu was inoculated. The plate is agitated in the SpectraMax spectrophotometer for 90 s and the OD600 for all the wells in the plate is recorded. […]

[2] = tested on: MRSA ATCC-BAA-1680; test: MIC, panel of MRSA strains: ATCC-BAA-1680; type: cell-based; conditions: Staphylococcus aureus; MRSA strain ATCC-BAA-1680
Description: as §1, §2, §3

[3] = tested on: MRSA ATCC-1720; test: MIC, panel of MRSA strains: ATCC-1720; type: cell-based; conditions: Staphylococcus aureus; MRSA strain ATCC-1720
Description: as §1, §2, §3

[4] = tested on: MRSA ATCC-BAA-44; test: MIC, panel of MRSA strains: ATCC-BAA-44; type: cell-based; conditions: Staphylococcus aureus; MRSA strain ATCC-BAA-44
Description: as §1, §2, §3

[5] = tested on: MRSA ATCC-2094; test: MIC, panel of MRSA strains: ATCC-2094; type: cell-based; conditions: Staphylococcus aureus; MRSA strain ATCC-2094
Description: as §1, §2, §3

[6] = tested on: MRSA ATCC-BAA-1681; test: MIC, panel of MRSA strains: ATCC-BAA-1681; type: cell-based; conditions: Staphylococcus aureus; MRSA strain ATCC-BAA-1681
Description: as §1, §2, §3

[7] = tested on: MRSA (ATCC 33591); test: MIC determination by broth microdilution vs. MRSA (ATCC 33591); type: cell-based, Staphylococcus aureus; conditions: Staphylococcus aureus
Description: as §1
During this pause period, an antibacterial dilution is prepared. Therefore an antibacterial stock solution is diluted in Mueller-Hinton broth. The concentration of DMSO is kept at 5%. 100 μL of the antibacterial solution are dispensed into the first well of a row. 50 μL of medium containing 0.5% of DMSO are dispensed to the rest of the wells. A 2-fold serial dilution is achieved by transferring 50 μL from the first well (containing the highest concentration of antibacterial) into the second well, and continuing like this until the 10th well in the row. The final 50 μL are discarded so that every well has 50 μL of each antibacterial dilution.
The 11th well was used as the growth control well (medium with bacterial inoculums, no antibacterial) while the 12th well was the sterility control well (medium only).
The bacterial suspension prepared above is mixed thoroughly, and diluted by a factor of 1:100 in the sterile medium. Each well and the growth control well is inoculated with 50 μL of the bacterial suspension. […] To the sterility control well 50 μL of sterile medium are added in place of the bacterial suspension. 10 μL aliquot from the growth control well is removed immediately after inoculating the plate and pipetted it into a sterile Eppendorf tube holding 990 μL of sterile broth. It is mixed well by vortexing. This suspension is further diluted (1:10) by pipetting 100 μL into 900 μL of sterile broth and mixing it well. 100 μL of each of the two dilutions are plated onto two different antibacterial-free agar plates. A sterile cell spreader is used to spread the liquid. Then the plate is sealed with a transparent adhesive film. The microtiter plate and agar plates are incubated at 37° C. for 16-20 hours or until satisfactory growth is obtained. The colonies on the agar plate are counted the next day to verify that the right number of cfu was inoculated. The plate is agitated in the SpectraMax spectrophotometer for 90 s and the OD600 for all the wells in the plate is recorded.

MIC [1]: 3.12 µM (≈ 2.29 µg/mL) | MIC [2]: 1.56 µM (≈ 1.15 µg/mL) | MIC [3]: 3.12 µM (≈ 2.29 µg/mL) | MIC [4]: 3.12 µM (≈ 2.29 µg/mL) | MIC [5]: 3.12 µM (≈ 2.29 µg/mL) | MIC [6]: 3.12 µM (≈ 2.29 µg/mL) | MIC ([7]; MRSA (ATCC 33591), read-out: MIC): 1.56 µM (≈ 1.14 µg/mL) | MIC ([7]; MRSA strain ATCC-33591, read-out: MIC values): 1.56 µM (≈ 1.15 µg/mL)
SMILES: N=C(N)NCCCCNC(=O)[C@@H](Cc1ccc(-c2ccccc2)cc1)NC(=O)[C@@H](CCCNC(=N)N)NC(=O)[C@H](N)Cc1ccc(-c2ccccc2)cc1 [Compound (A)]
